Measurements: ChEMBL document CHEMBL1201861, “Genomics of Drug Sensitity in Cancer screening data, Wellcome Trust Sanger Institute”

Key:
Experiment in all cases: cells
Type in all cases: functional, cell-based
Details in all cases: Homo sapiens
LS-1034 = test system: LS-1034
Description: SANGER: Inhibition of human LS-1034 cell growth in a cell viability assay.

SW982 = test system: SW982;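 note: growth inhibition of SW982 cells, read out with a cell viability assay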
Description: SANGER: Inhibition of human SW982 cell growth in a cell viability assay.

RPMI-8226 = test system: RPMI-8226
Description: SANGER: Inhibition of human RPMI-8226 cell growth in a cell viability assay.

SF-268 = test system: SF-268;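 note: growth inhibition of SF-268 cells determined with a cell viability assay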
Description: SANGER: Inhibition of human SF268 cell growth in a cell viability assay.

KINGS-1 = test system: KINGS-1;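 note: cell viability assay measuring suppression of KINGS-1 cell growth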
Description: SANGER: Inhibition of human KINGS-1 cell growth in a cell viability assay.

JVM-2 = test system: JVM-2;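 note: growth inhibition of JVM-2 cells determined by a cell viability assay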
Description: SANGER: Inhibition of human JVM-2 cell growth in a cell viability assay.

U-266 = test system: U-266
Description: SANGER: Inhibition of human U-266 cell growth in a cell viability assay.

EW-1 = test system: EW-1;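 note: growth inhibition of the human EW-1 cell line, read out by a cell viability assay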
Description: SANGER: Inhibition of human EW-1 cell growth in a cell viability assay.

NCI-H226 = test system: NCI-H226;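 note: cell viability read-out used to gauge growth inhibition of the cells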
Description: SANGER: Inhibition of human NCI-H226 cell growth in a cell viability assay.

A4-Fuk = test system: A4-Fuk;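 note: growth inhibition of A4-Fuk cells, read out by a cell viability assay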
Description: SANGER: Inhibition of human A4-Fuk cell growth in a cell viability assay.

TE-5 = test system: TE-5;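 note: inhibition of cell growth, read out by a cell viability assay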
Description: SANGER: Inhibition of human TE-5 cell growth in a cell viability assay.

SCH = test system: SCH;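 note: growth inhibition of human SCH cells, read out in a cell viability assay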
Description: SANGER: Inhibition of human SCH cell growth in a cell viability assay.

LOX IMVI = test system: LOX IMVI
Description: SANGER: Inhibition of human LOXIMVI cell growth in a cell viability assay.

NTERA-2-cl-D1 = test system: NTERA-2-cl-D1;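 note: inhibition of cell growth, measured with a cell viability assay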
Description: SANGER: Inhibition of human NTERA-S-cl-D1 cell growth in a cell viability assay.

SK-PN-DW = test system: SK-PN-DW;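 note: growth inhibition measured with a viability assay on these cells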
Description: SANGER: Inhibition of human SK-PN-DW cell growth in a cell viability assay.

SW872 = test system: SW872;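 note: growth inhibition of SW872 cells, read out by a viability assay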
Description: SANGER: Inhibition of human SW872 cell growth in a cell viability assay.

NCI-H1648 = test system: NCI-H1648;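 note: cell viability assay measuring inhibition of NCI-H1648 cell growth, from the Sanger screening data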
Description: SANGER: Inhibition of human NCI-H1648 cell growth in a cell viability assay.

KNS-42 = test system: KNS-42;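 note: growth inhibition of KNS-42 cells, read out with a cell viability assay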
Description: SANGER: Inhibition of human KNS-42 cell growth in a cell viability assay.

no-11 = test system: no-11;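 note: growth inhibition of human NO-11 cells, read out with a cell viability assay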
Description: SANGER: Inhibition of human no-11 cell growth in a cell viability assay.

LAN-6 = test system: LAN-6;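 note: growth inhibition of LAN-6 cells, determined with a cell viability assay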
Description: SANGER: Inhibition of human LAN-6 cell growth in a cell viability assay.

DU-4475 = test system: DU-4475
Description: SANGER: Inhibition of human DU-4475 cell growth in a cell viability assay.

SJSA-1 = test system: SJSA-1;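 note: growth inhibition of human SJSA-1 cells, read out through a cell viability measurement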
Description: SANGER: Inhibition of human SJSA-1 cell growth in a cell viability assay.

ES1 = test system: ES1;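 note: growth inhibition of ES1 cells, read out with a cell viability assay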
Description: SANGER: Inhibition of human ES1 cell growth in a cell viability assay.

8-MG-BA = test system: 8-MG-BA;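 note: growth inhibition of 8-MG-BA cells, read out with a cell viability assay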
Description: SANGER: Inhibition of human 8-MG-BA cell growth in a cell viability assay.

J-RT3-T3-5 = test system: J-RT3-T3-5;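 note: cell viability assay measuring growth inhibition of human J-RT3-T3-5 cells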
Description: SANGER: Inhibition of human J-RT3-T3-5 cell growth in a cell viability assay.

SK-NEP-1 = test system: SK-NEP-1;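 note: growth inhibition of human SK-NEP-1 cells, read out by a cell viability assay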
Description: SANGER: Inhibition of human SK-NEP-1 cell growth in a cell viability assay.

HT = test system: HT
Description: SANGER: Inhibition of human HT cell growth in a cell viability assay.

CTB-1 = test system: CTB-1
Description: SANGER: Inhibition of human CTB-1 cell growth in a cell viability assay.

NCI-H1838 = test system: NCI-H1838;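 note: growth inhibition of NCI-H1838 cells, determined with a cell viability readout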
Description: SANGER: Inhibition of human NCI-H1838 cell growth in a cell viability assay.

KS-1 = test system: KS-1;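 note: growth inhibition of KS-1 cells, read out with a cell viability assay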
Description: SANGER: Inhibition of human KS-1 cell growth in a cell viability assay.

NMC-G1 = test system: NMC-G1;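 note: growth inhibition of the NMC-G1 cell line, measured with a cell viability read-out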
Description: SANGER: Inhibition of human NMC-G1 cell growth in a cell viability assay.

NCI-H69 = test system: NCI-H69;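 note: growth inhibition of the cell line, read out with a cell viability assay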
Description: SANGER: Inhibition of human NCI-H69 cell growth in a cell viability assay.

SK-MEL-1 = test system: SK-MEL-1;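 note: growth inhibition of human SK-MEL-1 cells, read out by a cell viability assay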
Description: SANGER: Inhibition of human SK-MEL-1 cell growth in a cell viability assay.

MFH-ino = test system: MFH-ino;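 note: growth inhibition of human MFH-ino cells, read out by a cell viability assay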
Description: SANGER: Inhibition of human MFH-ino cell growth in a cell viability assay.

GOTO = test system: GOTO;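 note: growth inhibition of GOTO cells, read out by a cell viability assay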
Description: SANGER: Inhibition of human GOTO cell growth in a cell viability assay.

TE-10 = test system: TE-10;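 note: growth inhibition of TE-10 cells, measured by a cell viability assay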
Description: SANGER: Inhibition of human TE-10 cell growth in a cell viability assay.

697 = test system: 697
Description: SANGER: Inhibition of human 697 cell growth in a cell viability assay.

GI-1 = test system: GI-1;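 note: growth inhibition of human GI-1 cells, measured with a cell viability readout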
Description: SANGER: Inhibition of human GI-1 cell growth in a cell viability assay.

ACN = test system: ACN;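 note: growth inhibition of the human ACN cell line, read out via cell viability testing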
Description: SANGER: Inhibition of human ACN cell growth in a cell viability assay.

AM-38 = test system: AM-38;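 note: growth inhibition of AM-38 cells of human origin, read out by a cell viability assay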
Description: SANGER: Inhibition of human AM-38 cell growth in a cell viability assay.

K5 = test system: K5
Description: SANGER: Inhibition of human K5 cell growth in a cell viability assay.

NCI-H1581 = test system: NCI-H1581;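 note: cell growth inhibition read out by a viability assay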
Description: SANGER: Inhibition of human NCI-H1581 cell growth in a cell viability assay.

OMC-1 = test system: OMC-1;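 note: growth inhibition of the OMC-1 cell line, measured by a cell viability assay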
Description: SANGER: Inhibition of human OMC-1 cell growth in a cell viability assay.

NCI-H209 = test system: NCI-H209;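 note: growth inhibition of human NCI-H209 cells, measured by a cell viability assay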
Description: SANGER: Inhibition of human NCI-H209 cell growth in a cell viability assay.

LC-2-ad = test system: LC-2-ad;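 note: growth inhibition of human LC-2-ad cells, read out with a cell viability assay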
Description: SANGER: Inhibition of human LC-2-ad cell growth in a cell viability assay.

CGTH-W-1 = test system: CGTH-W-1;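 note: growth inhibition of human CGTH-W-1 cells measured by cell viability assay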
Description: SANGER: Inhibition of human CGTH-W-1 cell growth in a cell viability assay.

VA-ES-BJ = test system: VA-ES-BJ;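 note: growth inhibition of the VA-ES-BJ cell line, read out by a cell viability assay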
Description: SANGER: Inhibition of human VA-ES-BJ cell growth in a cell viability assay.

MOLT-16 = test system: MOLT-16;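 note: growth inhibition of human MOLT-16 cells, read out with a cell viability assay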
Description: SANGER: Inhibition of human MOLT-16 cell growth in a cell viability assay.

K562 = test system: K562
Description: SANGER: Inhibition of human K-562 cell growth in a cell viability assay.

ATN-1 = test system: ATN-1;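 note: growth inhibition of human ATN-1 cells, read out with a cell viability assay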
Description: SANGER: Inhibition of human ATN-1 cell growth in a cell viability assay.

ONS-76 = test system: ONS-76;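 note: growth inhibition of human ONS-76 cells, read out with a cell viability assay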
Description: SANGER: Inhibition of human ONS-76 cell growth in a cell viability assay.

MMAC-SF = test system: MMAC-SF;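 note: growth inhibition of human MMAC-SF cells, read out with a cell viability assay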
Description: SANGER: Inhibition of human MMAC-SF cell growth in a cell viability assay.

A101D = test system: A101D;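 note: growth inhibition of the cell line, measured with a viability assay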
Description: SANGER: Inhibition of human A101D cell growth in a cell viability assay.

CCRF-CEM = test system: CCRF-CEM;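 note: inhibition of CCRF-CEM cell growth, measured by a cell viability assay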
Description: SANGER: Inhibition of human CCRF-CEM cell growth in a cell viability assay.

TGBC1TKB = test system: TGBC1TKB;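 note: growth inhibition of TGBC1TKB cells, read out by a cell viability assay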
Description: SANGER: Inhibition of human TGBC1TKB cell growth in a cell viability assay.

KM-H2 = test system: KM-H2;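 note: growth inhibition of KM-H2 cells, read out by a cell viability assay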
Description: SANGER: Inhibition of human KM-H2 cell growth in a cell viability assay.

MEG-01 = test system: MEG-01;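 note: growth inhibition of MEG-01 cells, read out by a cell viability assay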
Description: SANGER: Inhibition of human MEG-01 cell growth in a cell viability assay.

EC-GI-10 = test system: EC-GI-10
Description: SANGER: Inhibition of human EC-GI-10 cell growth in a cell viability assay.

COLO-824 = test system: COLO-824
Description: SANGER: Inhibition of human COLO-824 cell growth in a cell viability assay.

MN-60 = test system: MN-60;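 note: growth inhibition of the MN-60 cell line, determined with a cell viability assay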
Description: SANGER: Inhibition of human MN-60 cell growth in a cell viability assay.

BE-13 = test system: BE-13;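 note: growth inhibition of human BE-13 cells, measured with a cell viability assay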
Description: SANGER: Inhibition of human BE-13 cell growth in a cell viability assay.

EW-16 = test system: EW-16;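 note: growth inhibition of human EW-16 cells, read out as cell viability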
Description: SANGER: Inhibition of human EW-16 cell growth in a cell viability assay.

SNU-C2B = test system: SNU-C2B
Description: SANGER: Inhibition of human SNU-C2B cell growth in a cell viability assay.

KALS-1 = test system: KALS-1
Description: SANGER: Inhibition of human KALS-1 cell growth in a cell viability assay.

KURAMOCHI = test system: KURAMOCHI
Description: SANGER: Inhibition of human KURAMOCHI cell growth in a cell viability assay.

KLE = test system: KLE
Description: SANGER: Inhibition of human KLE cell growth in a cell viability assay.

## Cc1n[nH]c2ccc(-c3cncc(OC[C@@H](N)Cc4c[nH]c5ccccc45)c3)cc12 [A-443654]
LS-1034
  IC50: 630 nM
SW982
  IC50: 166 nM
RPMI-8226
  IC50: 670 nM
SF-268
  IC50: > 1020 nM
KINGS-1
  IC50: 292 nM
JVM-2
  IC50: > 1020 nM
U-266
  IC50: > 1020 nM
EW-1
  IC50: 221 nM
NCI-H226
  IC50: > 1020 nM
A4-Fuk
  IC50: 103 nM
TE-5
  IC50: 169 nM
SCH
  IC50: > 1020 nM
LOX IMVI
  IC50: 797 nM
NTERA-2-cl-D1
  IC50: 27.6 nM
SK-PN-DW
  IC50: 222 nM
SW872
  IC50: 255 nM
NCI-H1648
  IC50: 183 nM
KNS-42
  IC50: 248 nM
no-11
  IC50: 130 nM
LAN-6
  IC50: 886 nM
DU-4475
  IC50: 801 nM
SJSA-1
  IC50: 376 nM
ES1
  IC50: 739 nM
8-MG-BA
  IC50: 163 nM
J-RT3-T3-5
  IC50: 185 nM
SK-NEP-1
  IC50: 519 nM
HT
  IC50: 373 nM
CTB-1
  IC50: 509 nM
NCI-H1838
  IC50: > 1020 nM
KS-1
  IC50: 53.5 nM
NMC-G1
  IC50: 880 nM
NCI-H69
  IC50: 318 nM
SK-MEL-1
  IC50: > 1020 nM
MFH-ino
  IC50: 236 nM
GOTO
  IC50: 366 nM
TE-10
  IC50: 89.4 nM
697
  IC50: 32.8 nM
GI-1
  IC50: 187 nM
ACN
  IC50: 909 nM
AM-38
  IC50: > 1020 nM
K5
  IC50: 428 nM
NCI-H1581
  IC50: 606 nM
OMC-1
  IC50: 191 nM
NCI-H209
  IC50: 246 nM
LC-2-ad
  IC50: 22.2 nM
CGTH-W-1
  IC50: 246 nM
VA-ES-BJ
  IC50: 129 nM
MOLT-16
  IC50: 83.7 nM
K562
  IC50: 385 nM
ATN-1
  IC50: > 1020 nM
ONS-76
  IC50: 444 nM
MMAC-SF
  IC50: > 1020 nM
A101D
  IC50: 133 nM
CCRF-CEM
  IC50: 144 nM
TGBC1TKB
  IC50: 120 nM
KM-H2
  IC50: > 1020 nM
MEG-01
  IC50: 814 nM
EC-GI-10
  IC50: > 1020 nM
COLO-824
  IC50: > 1020 nM
MN-60
  IC50: 487 nM
BE-13
  IC50: 502 nM
EW-16
  IC50: 216 nM
SNU-C2B
  IC50: 290 nM
KALS-1
  IC50: 203 nM
KURAMOCHI
  IC50: 244 nM
KLE
  IC50: 226 nM

## CC(O)(CS(=O)(=O)c1ccc(F)cc1)C(=O)Nc1ccc(C#N)c(C(F)(F)F)c1 (configuration not stated) [BICALUTAMIDE]
LS-1034
  IC50: > 1020 nM
SW982
  IC50: > 1020 nM
RPMI-8226
  IC50: > 1020 nM
SF-268
  IC50: > 1020 nM
KINGS-1
  IC50: > 1020 nM
JVM-2
  IC50: > 1020 nM
U-266
  IC50: > 1020 nM
EW-1
  IC50: > 1020 nM
NCI-H226
  IC50: > 1020 nM
A4-Fuk
  IC50: > 1020 nM
TE-5
  IC50: > 1020 nM
SCH
  IC50: > 1020 nM
LOX IMVI
  IC50: > 1020 nM
NTERA-2-cl-D1
  IC50: > 1020 nM
SK-PN-DW
  IC50: > 1020 nM
SW872
  IC50: > 1020 nM
NCI-H1648
  IC50: > 1020 nM
KNS-42
  IC50: > 1020 nM
no-11
  IC50: > 1020 nM
LAN-6
  IC50: > 1020 nM
DU-4475
  IC50: > 1020 nM
SJSA-1
  IC50: > 1020 nM
ES1
  IC50: > 1020 nM
8-MG-BA
  IC50: > 1020 nM
J-RT3-T3-5
  IC50: > 1020 nM
SK-NEP-1
  IC50: > 1020 nM
HT
  IC50: > 1020 nM
CTB-1
  IC50: > 1020 nM
NCI-H1838
  IC50: > 1020 nM
KS-1
  IC50: > 1020 nM
NMC-G1
  IC50: > 1020 nM
NCI-H69
  IC50: > 1020 nM
SK-MEL-1
  IC50: > 1020 nM
MFH-ino
  IC50: > 1020 nM
GOTO
  IC50: > 1020 nM
TE-10
  IC50: > 1020 nM
697
  IC50: > 1020 nM
GI-1
  IC50: > 1020 nM
ACN
  IC50: > 1020 nM
AM-38
  IC50: > 1020 nM
K5
  IC50: > 1020 nM
NCI-H1581
  IC50: > 1020 nM
OMC-1
  IC50: > 1020 nM
NCI-H209
  IC50: > 1020 nM
LC-2-ad
  IC50: > 1020 nM
CGTH-W-1
  IC50: > 1020 nM
VA-ES-BJ
  IC50: > 1020 nM
MOLT-16
  IC50: > 1020 nM
K562
  IC50: > 1020 nM
ATN-1
  IC50: > 1020 nM
ONS-76
  IC50: > 1020 nM
MMAC-SF
  IC50: > 1020 nM
A101D
  IC50: > 1020 nM
CCRF-CEM
  IC50: > 1020 nM
TGBC1TKB
  IC50: > 1020 nM
KM-H2
  IC50: > 1020 nM
MEG-01
  IC50: > 1020 nM
EC-GI-10
  IC50: > 1020 nM
COLO-824
  IC50: > 1020 nM
MN-60
  IC50: > 1020 nM
BE-13
  IC50: > 1020 nM
EW-16
  IC50: > 1020 nM
SNU-C2B
  IC50: > 1020 nM
KALS-1
  IC50: > 1020 nM
KURAMOCHI
  IC50: > 1020 nM
KLE
  IC50: > 1020 nM
